The record followed here is patent US10413535B2, “Pharmaceutical compositions comprising an integrin ALPHA4 antagonist for use in treating ocular inflammatory conditions” (AXEROVISION, INC., priority 2015, dated 2019).

The assay has as its system cells of draining cervical lymph nodes. Description: Flow cytometry of draining cervical lymph nodes, desiccating stress 1 day. Type of assay: in vivo, mouse. The conditions noted are these: 1 day DS; for CD11c+ dendritic cells in draining cervical lymph nodes / CD11c+/MHC II+ dendritic cells in draining cervical lymph nodes: listed as compound of formula I. Here is the method: Female C57BL/6 mice, aged 6 to 8 weeks, were subjected to DS for 5 days (DS5) as described previously (de Paiva et al., 2006b; Niederkorn et al., 2006). Topical bilateral treatment with 1 eye drop per eye (2 μL volume) or subcutaneous injection (4 μL volume), 2 times per day, was initiated on day 1 concurrently with DS and continued through day 4. Treatment with the compound of formula I or dexamethasone phosphate 0.1% was compared to correspondingly treated vehicle controls. Mice were randomized to receive one of the test articles. Control mice were kept in a non-stressed (NS) environment maintained at 50-75% relative humidity without exposure to airflow or scopolamine and were not treated with test or control article. Treatment effects were assessed on corneal staining with Oregon Green Dextran (OGD); expression of inflammatory markers in ocular surface tissues by real time PCR; cell population analysis in draining cervical lymph nodes by FACS analysis; conjunctival T cell infiltration by immunohistochemistry.
Cervical draining lymph nodes (CLN) were surgically excised, placed in a round culture plate with ˜8 mL of complete RPMI media and smashed between two frosted slides.
Single-cell suspensions of CLN from C57BL/6 mice, treated under DS conditions for 1 day, were prepared, centrifuged and sequentially filtered, as previously described (de Paiva et al., 2009a). Subsequently 1.0 mL of ACT solution was added for 30 seconds followed by 2.0 mL of complete RPMI. The cells were once again centrifuged and the supernatant aspirated. Cells were then re-suspended in 2.0 mL of complete RPMI and prepared for counting. Ten μL of Trypan Blue were used for counting and the cells were divided in tubes at 1×10^6 cells/mL. Subsequently, the cells were incubated on ice in 20 μL unconjugated anti-mouse CD16/CD32 (BD Pharmingen, San Diego, Calif.) followed by 80 μL of directly conjugated primary antibody or isotype. Finally the samples were washed with 1 mL PBS/1% FBS, centrifuged and re-suspend in 0.3 mL PBS/1% FBS containing 1:1000 of PI. The samples were stored at 4° C. until the analysis was performed with an A BD LSRII Benchtop cytometer. The data was analysed using BD Diva Software (BD Pharmingen) and FlowJo (TreeStar Inc).
Due to skewed distribution of OGD data, the analysis was done on the log 10 scale to make the data more normally distributed. Log 10 OGD data was averaged across two observers and the left and right eyes. The mixed effects ANOVA model included treatment group as a fixed effect and week as a random effect. 95% and 99% confidence intervals were constructed for the disease (5 day DS vs untreated group kept in separate vivarium) and compound treatment effects (treatment vs vehicle). As these comparisons were all pre-planned (comparing each treatment to its vehicle group), no adjustment was made for multiplicity. Log 10 scale treatment effect estimates and confidence limits were converted back to the original OGD scale, thus representing the estimate for the ratio of group geometric means and their confidence limits. For gene expression analysis, an unpaired T test was performed to compare drug and vehicle treatment. For flow cytometry analysis, a 2-way ANOVA with fixed treatment and random experiment effects was employed to test the treatment differences. The analysis was followed by Dunnett's multiple comparison procedure to compare each of the treatment groups with the vehicle group. T cell density was calculated for each section and averaged across sections for each animal. As the distribution of average cell density data was non-normal, it was analyzed by using non-parametric methods (Kruskal-Wallis procedure, followed by Dunn's multiple comparisons technique).
The draining CLN are an integral part of the immune cycle in DED (Pflugfelder et al., 2008; Schaumburg et al., 2011). […]
A general note: In flow cytometry, cells or beads pass a laser one at a time.

Where [1] appears, read: topical treatment, vs vehicle (GW559090 30 mg/mL, 60 μg per eye; Dex 0.1%).

Entries after “also recorded” stand apart in the source; their conditions may differ.

For `Cc1ccccc1OCC(=O)N[C@@H](CC(C)C)C(=O)N[C@@H](Cc1ccc(OC(=O)N2CCC(C(N)=O)CC2)cc1)C(=O)O` [GW559090, (2S)-3-[4-({[4-(Aminocarbonyl)-1-piperidinyl]carbonyl}oxy)phenyl]-2-[((2S)-4-methyl-2-{[2-(2-methylphenoxy)acetyl]amino}pentanoyl)amino]propanoic acid], the “CD4+ and CD8+ T cells in draining lymph nodes” value was “nor did treatment with the compound of formula I or dexamethasone decrease the number of T cells”. Further, for the setting “systemic (SC BID, 120 μg)”, the “CD11c+ dendritic cells in draining cervical lymph nodes” value was “Neither systemic treatment with the compound of formula I nor topical treatment with dexamethasone phosphate produced the same effect; also recorded: no significant effect” and the “CD11c+/MHC II+ dendritic cells in draining cervical lymph nodes” value was “no significant effect”. In addition, under setting [1], the “CD11c+ dendritic cells in draining cervical lymph nodes” value is given as “reduced; also recorded: decreases” and the “CD11c+/MHC II+ dendritic cells in draining cervical lymph nodes” value is “reduced; also recorded: decreases”.
